Literature values in PMC8433641, “A Stability-Indicating Ultra Performance Liquid Chromato-Graphic (UPLC) Method for the Determination of a Mycophenolic Acid-Curcumin Conjugate and Its Applications to Chemical Kinetic Studies” (Molecules, 2021).

Set-up: method as in PMID 29678124
Conditions: pH 7.4

curcumin
t1/2: 33.6 min
